Patent US4831026A, “2-oxa-isocephem compounds, compositions containing same and processes of using” (Otsuka Pharmaceutical Co., Ltd., priority 1985, dated 1989)
Where two headings read alike, the source gives them in different places.

Key:
S. aureus FDA-209-p = test: Antimicrobial activity test: MIC by the agar plate dilution method, S. aureus FDA-209-p; format: cell-based, Staphylococcus aureus; conditions: inoculum 1×10^6 cells/ml
Procedure: (§1) In order to investigate the in vitro activity of the under-mentioned compounds against various bacteria, the minimal inhibitory concentration (MIC) values were determined by the agar plate dilution method [see Chemotherapy, 22, 1126-1128 (1974)].
(§2) Each test inoculum was adjusted to 1×10^6 cells/ml (O.D., 600 mμ: 0.07-0.16).

E. coli No. 29 = test: Antimicrobial activity test: MIC by the agar plate dilution method, E. coli No. 29; format: cell-based
Procedure: as §1, §2

K. pneumoniae NCTC-9632 = test: Antimicrobial activity test: MIC by the agar plate dilution method, K. pneumoniae NCTC-9632; format: cell-based; conditions: inoculum 1×10^6 cells/ml
Procedure: as §1, §2

P. mirabilis 1287 = test: Antimicrobial activity test: MIC by the agar plate dilution method, P. mirabilis 1287; format: cell-based
Procedure: as §1, §2

M. morganii ATCC-25830 = test: Antimicrobial activity test: MIC by the agar plate dilution method, M. morganii ATCC-25830; format: cell-based; conditions: inoculum 1×10^6 cells/ml
Procedure: as §1, §2

S. marcescens IFO-12648 = test: Antimicrobial activity test: MIC by the agar plate dilution method, S. marcescens IFO-12648; format: cell-based
Procedure: as §1, §2

P. aeruginosa NCTC-10490 = test: Antimicrobial activity test: MIC by the agar plate dilution method, P. aeruginosa NCTC-10490; format: cell-based; conditions: inoculum 1×10^6 cells/ml
Procedure: as §1, §2

[1] = P. mirabilis 1287, inoculum 1×10^6 cells/ml
[2] = E. coli No. 29, inoculum 1×10^6 cells/ml
[3] = S. marcescens IFO-12648, inoculum 1×10^6 cells/ml

## 1-Acetoxyethyl 7-[2-(2-aminothiazol-4-yl)-2-methoxyiminoacetamido]-3-[(1,3,4-thiadiazol-2-yl)thiomethyl]-Δ^3 -O-2-isocephem-4-carboxylate (syn-isomer) [Example 13]
S. aureus FDA-209-p
  MIC: 0.39 µg/mL
E. coli No. 29
  MIC: 0.39 µg/mL
K. pneumoniae NCTC-9632
  MIC: 0.78 µg/mL
P. mirabilis 1287; [1]
  MIC: 0.1 µg/mL
M. morganii ATCC-25830
  MIC: 0.39 µg/mL
S. marcescens IFO-12648
  MIC: 0.78 µg/mL
P. aeruginosa NCTC-10490
  MIC: 0.78 µg/mL

## 7-2-(Thiazol-4-yl)-2-tert-butoxycarbonylmethoxyiminoacetamido]-Δ^3 -O-2-isocephem-4-carboxylic acid (syn-isomer) [Example 19]
S. aureus FDA-209-p
  MIC: 0.39 µg/mL
E. coli No. 29; [2]
  MIC: ≤ 0.025 µg/mL
K. pneumoniae NCTC-9632
  MIC: ≤ 0.025 µg/mL
P. mirabilis 1287; [1]
  MIC: ≤ 0.025 µg/mL
M. morganii ATCC-25830
  MIC: ≤ 0.025 µg/mL
S. marcescens IFO-12648; [3]
  MIC: 0.05 µg/mL
P. aeruginosa NCTC-10490
  MIC: 3.13 µg/mL

## 7-[2-(2-Aminothiazol-4-yl)-2-(2-chloroethoxy)iminoacetamido]-3-[(1,3,4-thiadiazol-2-yl)thiomethyl]-Δ^3 -O-2-isocephem-4-carboxylic acid (syn-isomer) [No. 9]
S. aureus FDA-209-p
  MIC: 0.05 µg/mL
E. coli No. 29; [2]
  MIC: 0.2 µg/mL
K. pneumoniae NCTC-9632
  MIC: 0.39 µg/mL
P. mirabilis 1287
  MIC: 0.39 µg/mL
M. morganii ATCC-25830
  MIC: 0.78 µg/mL
S. marcescens IFO-12648
  MIC: 0.78 µg/mL
P. aeruginosa NCTC-10490
  MIC: 0.78 µg/mL

## 7-[2-(2-Aminothiazol-4-yl)-2-(2-fluoroethoxy)iminoacetamido]-3-[(1,3,4-thiadiazol-2-yl)thiomethyl-]-Δ^3 -O-2-isocephem-4-carboxylic acid trifluoroacetate (syn-isomer) [Example 49]
E. coli No. 29; [2]
  MIC: ≤ 0.025 µg/mL
K. pneumoniae NCTC-9632
  MIC: ≤ 0.025 µg/mL
P. mirabilis 1287; [1]
  MIC: ≤ 0.025 µg/mL
M. morganii ATCC-25830
  MIC: ≤ 0.025 µg/mL
S. marcescens IFO-12648; [3]
  MIC: 0.1 µg/mL
P. aeruginosa NCTC-10490
  MIC: 1.56 µg/mL

## 7-[2-(2-Aminothiazol-4-yl)-2-[(pyrazol-3-yl)methoxyiminoacetamido]-3-[(1,3,4-thiadiazol-2-yl)thiomethyl]-Δ^3 -O-2-isocephem-4-carboxylic acid dihydrochloride (syn-isomer) [Example 24]
E. coli No. 29
  MIC: 0.39 µg/mL
K. pneumoniae NCTC-9632
  MIC: 0.39 µg/mL
P. mirabilis 1287; [1]
  MIC: ≤ 0.025 µg/mL
M. morganii ATCC-25830
  MIC: 0.1 µg/mL
S. marcescens IFO-12648
  MIC: 0.39 µg/mL
P. aeruginosa NCTC-10490
  MIC: 12.5 µg/mL

## 7-[2-(2-Chloroacetamidothiazol-4-yl)-2-methoxyiminoacetamido]-3-[(1,3,4-thiadiazol-2-yl)thiomethyl]-Δ^3 -O-2-isocephem-4-carboxylic acid (syn-isomer) [Example 11]
E. coli No. 29; [2]
  MIC: 0.05 µg/mL
K. pneumoniae NCTC-9632
  MIC: 0.2 µg/mL
P. mirabilis 1287; [1]
  MIC: ≤ 0.025 µg/mL
M. morganii ATCC-25830
  MIC: ≤ 0.025 µg/mL
S. marcescens IFO-12648; [3]
  MIC: 0.2 µg/mL
P. aeruginosa NCTC-10490
  MIC: 6.25 µg/mL

## (6S,7S)-7-[2-(2-Aminothiazol-4-yl)-2-cyclopropylmethyloxyiminoacetamido]-3- [(1,2,3-thiadiazol-5-yl)thiomethyl]-Δ^3 -O-2-isocephem-4-carboxylic acid (syn-isomer) [Example 65]
E. coli No. 29; [2]
  MIC: 0.1 µg/mL
K. pneumoniae NCTC-9632
  MIC: 0.39 µg/mL
P. mirabilis 1287; [1]
  MIC: 0.2 µg/mL
M. morganii ATCC-25830
  MIC: 0.05 µg/mL
S. marcescens IFO-12648
  MIC: 0.78 µg/mL
P. aeruginosa NCTC-10490
  MIC: 0.78 µg/mL

## Benzhydryl 7-[2-(2-formamidothiazol-4-yl)-2-(2-chloroethoxy)iminoacetamido-]-3-[(1,3,4-thiadiazol-2-yl)thiomethyl]-Δ^3 -O-2-isocephem-4-carboxylate (syn-isomer) [Example 32]
S. aureus FDA-209-p
  MIC: 0.39 µg/mL
E. coli No. 29; [2]
  MIC: 0.05 µg/mL
K. pneumoniae NCTC-9632
  MIC: 0.1 µg/mL
P. mirabilis 1287; [1]
  MIC: 0.05 µg/mL
M. morganii ATCC-25830
  MIC: 0.1 µg/mL
S. marcescens IFO-12648
  MIC: 0.78 µg/mL

## Benzhydryl 7-[2-(2-tritylaminothiazol-4-yl)-2 -methoxyiminoacetamido]-3-[(1,2,3-thiadiazol-5-yl)thiomethyl]-Δ^3 -O-2-isocephem-4-carboxylate (syn-isomer) [Example 51]
E. coli No. 29; [2]
  MIC: ≤ 0.025 µg/mL
K. pneumoniae NCTC-9632
  MIC: ≤ 0.025 µg/mL
P. mirabilis 1287; [1]
  MIC: ≤ 0.025 µg/mL
M. morganii ATCC-25830
  MIC: ≤ 0.025 µg/mL
S. marcescens IFO-12648; [3]
  MIC: 0.1 µg/mL
P. aeruginosa NCTC-10490
  MIC: 0.78 µg/mL

## Benzhydryl 7-[2-(2-tritylaminothiazol-4-yl)-2-[(3-butenyl)oxyimino]acetamido]-3-[(1,3,4-thiadiazol-2-yl)thiomethyl]-Δ^3 -O-2-isocephem-4-carboxylate (syn-isomer) [Example 39]
E. coli No. 29; [2]
  MIC: 0.2 µg/mL
K. pneumoniae NCTC-9632
  MIC: 0.2 µg/mL
P. mirabilis 1287; [1]
  MIC: 0.2 µg/mL
M. morganii ATCC-25830
  MIC: 0.39 µg/mL
S. marcescens IFO-12648
  MIC: 0.78 µg/mL
P. aeruginosa NCTC-10490
  MIC: 1.56 µg/mL

## Benzhydryl 7-[2-(2-tritylaminothiazol-4-yl)-2-allyloxyiminoacetamido]-3-[(1,3,4-thiadiazol-2-yl)thiomethyl]-Δ^3 -O-2-isocephem-4-carboxylate (syn-isomer) [Example 43]
E. coli No. 29
  MIC: 0.39 µg/mL
K. pneumoniae NCTC-9632
  MIC: 0.78 µg/mL
P. mirabilis 1287; [1]
  MIC: 0.1 µg/mL
M. morganii ATCC-25830
  MIC: 1.56 µg/mL
S. marcescens IFO-12648; [3]
  MIC: 6.25 µg/mL
P. aeruginosa NCTC-10490
  MIC: 50 µg/mL

## Benzhydryl 7-[2-(2-tritylaminothiazol-4-yl)-2-benzyloxyiminoacetamido]-3-[(1,3,4-thiadiazol-2-yl)thiomethyl]-Δ^3 -O-2-isocephem-4-carboxylate (syn-isomer) [Example 47]
E. coli No. 29; [2]
  MIC: ≤ 0.025 µg/mL
K. pneumoniae NCTC-9632
  MIC: ≤ 0.025 µg/mL
P. mirabilis 1287; [1]
  MIC: ≤ 0.025 µg/mL
M. morganii ATCC-25830
  MIC: ≤ 0.025 µg/mL
S. marcescens IFO-12648; [3]
  MIC: 0.1 µg/mL
P. aeruginosa NCTC-10490
  MIC: 3.13 µg/mL

## Benzhydryl 7-[2-(2-tritylaminothiazol-4-yl)-2-cyanomethyloxyiminoacetamido]-3-[(1,2,3-thiadiazol-5-yl)thiomethyl]-Δ^3 -O-2-isocephem-4-carboxylate (syn-isomer) [Example 52]
E. coli No. 29; [2]
  MIC: 0.1 µg/mL
K. pneumoniae NCTC-9632
  MIC: 0.2 µg/mL
P. mirabilis 1287; [1]
  MIC: 0.1 µg/mL
M. morganii ATCC-25830
  MIC: 0.05 µg/mL
S. marcescens IFO-12648
  MIC: 0.78 µg/mL
P. aeruginosa NCTC-10490
  MIC: 0.39 µg/mL

## Benzhydryl 7-[2-(2-tritylaminothiazol-4-yl)-2-cyclopropylmethyloxyiminoacetamido]-3-[(1,2,3-thiadiazol-5-yl)thiomethyl]-Δ^3 -O-2-isocephem-4-carboxylate (syn-isomer) [Example 53]
E. coli No. 29; [2]
  MIC: 0.05 µg/mL
P. mirabilis 1287; [1]
  MIC: 0.1 µg/mL
M. morganii ATCC-25830
  MIC: 0.05 µg/mL
S. marcescens IFO-12648
  MIC: 0.78 µg/mL
P. aeruginosa NCTC-10490
  MIC: 0.39 µg/mL

## Benzhydryl (6S,7S)-7-[2-(2-aminothiazol-4-yl)-2-cyclopropylmethyloxyiminoacetamido]-3-[(1,2,3-thiadiazol-5-yl)thiomethyl]-Δ^3 -O-2-isocephem-4-carboxylate (syn-isomer) [Example 64]
E. coli No. 29; [2]
  MIC: ≤ 0.025 µg/mL
K. pneumoniae NCTC-9632
  MIC: ≤ 0.025 µg/mL
P. mirabilis 1287; [1]
  MIC: ≤ 0.025 µg/mL
M. morganii ATCC-25830
  MIC: ≤ 0.025 µg/mL
S. marcescens IFO-12648; [3]
  MIC: 0.05 µg/mL
P. aeruginosa NCTC-10490
  MIC: 1.56 µg/mL

## Benzhydryl (6S,7S)-7-[2-(2-tritylaminothiazol-4-yl)-2-cyclopropylmethyloxyiminoacetamido]-3-[(1,2,3-thiadiazol-5-yl)thiomethyl]-Δ^3 -O-2-isocephem-4-carboxylate (syn-isomer) [Example 63]
E. coli No. 29; [2]
  MIC: ≤ 0.025 µg/mL
K. pneumoniae NCTC-9632
  MIC: ≤ 0.025 µg/mL
P. mirabilis 1287; [1]
  MIC: ≤ 0.025 µg/mL
S. marcescens IFO-12648; [3]
  MIC: 0.05 µg/mL
P. aeruginosa NCTC-10490
  MIC: 0.78 µg/mL

## Benzhydryl (6S,7S)-7-[2-(2-tritylaminothiazol-4-yl)-2-methoxyiminoacetamido]-3-[(1,3,4-thiadiazol-2-yl)thiomethyl]-Δ^3 -O-2-isocephem-4-carboxylate (syn-isomer) [Example 58]
S. aureus FDA-209-p
  MIC: 0.39 µg/mL
E. coli No. 29; [2]
  MIC: ≤ 0.025 µg/mL
K. pneumoniae NCTC-9632
  MIC: ≤ 0.025 µg/mL
P. mirabilis 1287; [1]
  MIC: ≤ 0.025 µg/mL
S. marcescens IFO-12648
  MIC: 0.39 µg/mL
P. aeruginosa NCTC-10490
  MIC: 25 µg/mL

## Benzhydryl (6S,7S)-7-[2-(2-tritylaminothiazol-4-yl)- 2-cyanomethoxyiminoacetamido]-3-[(1,3,4-thiadiazol-2-yl)thiomethyl]-Δ^3 -O-2-isocephem-4-carboxylate (syn-isomer) [Example 61]
E. coli No. 29; [2]
  MIC: 0.05 µg/mL
K. pneumoniae NCTC-9632
  MIC: 0.05 µg/mL
P. mirabilis 1287; [1]
  MIC: ≤ 0.025 µg/mL
M. morganii ATCC-25830
  MIC: ≤ 0.025 µg/mL
S. marcescens IFO-12648
  MIC: 0.78 µg/mL
P. aeruginosa NCTC-10490
  MIC: 3.13 µg/mL

## Benzyl 7-[2-(2-chloroacetamidothiazol-4-yl)-2-methoxyiminoacetamido]-3-[(1,3,4-thiadiazol-2-yl)thiomethyl]-Δ^3 -O-2-isocephem-4-carboxylate (syn-isomer) [Example 10]
S. aureus FDA-209-p
  MIC: 0.39 µg/mL
E. coli No. 29
  MIC: 0.39 µg/mL
K. pneumoniae NCTC-9632
  MIC: 0.39 µg/mL
P. mirabilis 1287; [1]
  MIC: 0.1 µg/mL
M. morganii ATCC-25830
  MIC: 0.2 µg/mL
S. marcescens IFO-12648
  MIC: 0.39 µg/mL

## Benzyl 7-[2-(2-chloroacetamidothiazol-4-yl)-2-methoxyiminoacetamido]-3-[(carbamoyloxy)methyl]-Δ^3 -O-2-isocephem-4-carboxylate (syn-isomer) [Example 1]
E. coli No. 29; [2]
  MIC: ≤ 0.025 µg/mL
P. mirabilis 1287; [1]
  MIC: ≤ 0.025 µg/mL
S. marcescens IFO-12648; [3]
  MIC: 0.1 µg/mL
P. aeruginosa NCTC-10490
  MIC: 3.13 µg/mL

## Benzyl 7-[2-(2-chloroacetamidothiazol-4-yl)-2allyloxyiminoacetamido]-3-[(1,3,4-thiadiazol-2-yl)thiomethyl]-Δ^3 -O-2-isocephem-4-carboxylate (syn-isomer) [Example 14]
E. coli No. 29; [2]
  MIC: 0.05 µg/mL
K. pneumoniae NCTC-9632
  MIC: 0.1 µg/mL
P. mirabilis 1287; [1]
  MIC: ≤ 0.025 µg/mL
S. marcescens IFO-12648; [3]
  MIC: 0.1 µg/mL
P. aeruginosa NCTC-10490
  MIC: 3.13 µg/mL
